Data from patent US9284283B2, “Macrocyclic compounds for modulating IL-17” (ENSEMBLE THERAPEUTICS CORPORATION, priority 2012, dated 2016).

Experiments:
[1] = target: T1, recombinant human IL17a (binding to its receptor IL17R) (Homo sapiens, UniProt Q16552); assay: IL-17 competition ELISA I (IL17a coated, IL17R/Fc binding)
T1 construct: purchased R&D Systems 317-ILB (IL17a); 177-IR (IL17R/Fc)
T1 sequence (Q16552 20-155 limits assumed): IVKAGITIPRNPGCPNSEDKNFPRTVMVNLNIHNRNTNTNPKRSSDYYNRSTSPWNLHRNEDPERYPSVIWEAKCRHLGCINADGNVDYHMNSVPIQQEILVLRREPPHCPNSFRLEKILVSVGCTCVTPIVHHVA
In short: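 Plates coated with 20 nM recombinant human IL17a received compound dilutions and 12 nM IL17R/Fc (final) for 30 min at room temperature. Bound receptor was detected with HRP anti-human Fc and TMB, read at 450 nm. IC50 came from a 4-parameter logistic fit between no-competitor and blank controls.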

[2] = system: IL-17A induced secretion of IL-6 in primary human RASF cells; assay: Inhibition of IL17A induced secretion of IL6 in human rheumatoid arthritis synovial fibroblast (RASF) cells; type: cell-based; details: Homo sapiens, Fibroblast
In short: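 Primary RASF cells (passage 2-8) stimulated 20 h at 37 °C with rhIL-17A (30 ng/mL) pre-incubated 1 h with compound (final 0.03-25 μM, 0.25% DMSO). Supernatant IL-6 measured by ELISA, normalized to WST1 viability; triplicates.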

[3] = target: T2, biotinylated human IL-17 (binding to IL17R/Fc) (Homo sapiens, UniProt Q16552); assay: IL-17 competition ELISA II (captured IL17R/Fc, biotinylated IL-17)
T2 construct: purchased R&D Systems 317-ILB (IL-17, biotinylated); 177-IR (IL17R/Fc)
T2 sequence (Q16552 20-155 limits assumed): T1 sequence (Q16552 20-155 limits assumed)
In short: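 Competition read-out: absorbance at 450 nm after streptavidin-HRP/TMB detection, fitted to a 4-parameter logistic model bounded by no-competitor and blank wells to give IC50. Compound was serially diluted 5-fold from 1 μM alongside 20 nM (stock) biotinylated IL-17 on IL17R/Fc (10 nM) captured via goat anti-human IgG, 30 min at room temperature.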

| SMILES | IC50 [1] | IC50 [3] | IC50 [2] |
| --- | --- | --- | --- |
| COC(=O)[C@@H]1CCCCNC(=O)CNC(=O)[C@@H](Cc2ccc(NC(=O)[C@H](Cc3ccccc3Cl)NC(=O)Cc3ccccc3)cc2)NC(=O)CC2(CCCC2)CC(=O)N1 [Compound 143] | < 100 nM | – | 1000 to 10000 nM |
| COC(=O)[C@@H]1CCCCNC(=O)CNC(=O)[C@@H](Cc2ccc(NC(=O)[C@H](Cc3ccccc3Cl)NC(=O)c3ccccc3)cc2)NC(=O)CC2(CCCC2)CC(=O)N1 [Compound 144] | < 100 nM | – | 1000 to 10000 nM |
| O=C1CNC(=O)[C@@H](Cc2ccc(NC(=O)[C@@H](NC(=O)Cc3ccccc3)C3CCCCC3)cc2)NC(=O)CC2(CCCC2)CC(=O)NCCCCCN1 [Compound 186] | < 100 nM | < 100 nM | 1000 to 10000 nM |
| O=C1CNC(=O)[C@@H](Cc2ccc(NC(=O)[C@H](Cc3ccc(Cl)cc3Cl)NC(=O)Cc3ccc(O)cc3)cc2)NC(=O)CC2(CCCC2)CC(=O)NCCCCCN1 [Compound 191] | < 100 nM | – | 1000 to 10000 nM |
| O=C1CNC(=O)[C@@H](Cc2ccc(NC(=O)[C@H](Cc3ccccc3Cl)NC(=O)c3cccnc3)cc2)NC(=O)CC2(CCCC2)CC(=O)NCCCCCN1 [Compound 194] | < 100 nM | < 100 nM | 100 to 1000 nM |
| O=C1CNC(=O)[C@@H](Cc2ccc(NC(=O)[C@H](Cc3ccccc3Cl)NC(=O)Cc3ccccn3)cc2)NC(=O)CC2(CCCC2)CC(=O)NCCCCCN1 [Compound 226] | < 100 nM | < 100 nM | 1000 to 10000 nM |

More lines, main results first:

| IC50 [1] | IC50 [3] | SMILES | IC50 [2] |
| --- | --- | --- | --- |
| 100 to 1000 nM | – | COC(=O)[C@@H]1CCCCNC(=O)CCCNC(=O)[C@@H](Cc2ccc(NC(=O)[C@H](Cc3ccccc3F)NC(=O)Cc3ccccc3)cc2)NC(=O)CC2(CCCC2)CC(=O)N1 [Compound 106] | > 10000 nM |
| < 100 nM | – | O=C1CNC(=O)[C@@H](Cc2ccc(NC(=O)[C@H](Cc3ccccc3Cl)NC(=O)Cc3ccccc3)cc2)NC(=O)CC2(CCCC2)CC(=O)NCCCCCN1 [Compound 159] | 1000 to 10000 nM |
| < 100 nM | – | O=C1CNC(=O)[C@@H](Cc2ccc(NC(=O)[C@H](Cc3ccc(Cl)cc3Cl)NC(=O)Cc3ccccc3)cc2)NC(=O)CC2(CCCC2)CC(=O)NCCCCCN1 [Compound 185] | 1000 to 10000 nM |
